Experimental data from patent US20040001818A1, “Methods of inhibiting angiogenesis using NADPH oxidase inhibitors” (priority 2000, published 2004).
Starred links: 1 amine or outer side, 2 acyl side, 3 side chain; linkers in the order of their positions; H or OH if unused. Positions of bridges follow the written chain, without caps; N, C: chain ends. Non-standard residues stand in square brackets, D forms with d. Residues, ends and D or L forms follow the SMILES beside them. Chains are numbered I, II in the order given. Actinocin(9to1) = Cc1c2oc3c(C)ccc(C(=O)[*:1])c3nc-2c(C(=O)[*:2])c(N)c1=O; NMeV = CN[C@H](C(=O)O)C(C)C; Sar = CNCC(=O)O

What was measured:
[1] = tested on: human coronary artery endothelial cells (HCAECs); experiment: [3H]-thymidine incorporation in HCAECs; assay type: cell-based; conditions: for thymidine incorporation: HCAECs grown in 10% FBS
Procedure: To determine whether the effect of serum or VEGF on endothelial cell proliferation might also be dependent upon ambient levels of ROS, HCAECs were grown to confluence, split into 24 wells, serum starved for eight hours and then incubated in the absence or presence of VEGF for 16 or 24 hours. All wells received 1 μCi of [^3H]-thymidine at the time of treatment. After 16 or 24 hours, medium was removed, and the wells were washed 3 times with PBS. Radioactivity was extracted and thymidine incorporation measured using a scintillation counter.

[2] = tested on: MnSOD mRNA; experiment: Northern blot of MnSOD mRNA in HCAECs; assay type: cell-based, human; conditions: for VEGF stimulation of MnSOD: HCAEC pre-incubated with 1 μM GF-109203X, 50 μM PD98059 or 20 μM SB 203580; for VEGF-mediated induction of MnSOD: serum-starved HCAECs, VEGF 50 ng/ml, four hours, DPI 5, 25, 100 μM, apocynin 0.3, 2, 5 mM, allopurinol 0.1, 0.5 mM
Procedure: Cell culture. Human coronary artery endothelial cells (HCAECs) (Clonetics Corporation, San Diego, Calif., USA) and human pulmonary artery endothelial cells (HPAECs) were grown in Endothelial Growth Medium-2-MV (EGM-2-MV) BulletKit (Clonetics Corporation, San Diego, Calif., USA). At 80-90% confluence, the cells were serum-starved in DMEM containing 0.5% FBS for 24 hours and subsequently treated with VEGF-supplemented medium for the times indicated. Human recombinant VEGF was purchased from PeproTech, Inc. (Rocky Hill, N.J., USA). […] In other studies, the serum-starved cells were pretreated with the MEK inhibitor PD98059 at a final concentration of 50 μM or a specific PKC inhibitor bisindolylmaleimide I (BIM; CalBiochem, San Diego, Calif., USA) at a final concentration of 5 μM for 30 minutes prior to addition of growth factors. An equal amount of DMSO was added to the control plates. Northern blot analyses. Ten micrograms total RNA was loaded on a 0.7% formaldehyde-containing agarose gel. The RNA was transferred to nylon membrane, covalently cross-linked with UV radiation, prehybridized for 6 hours, and hybridized for 18 hours at 42° C. with a [^32P]dCTP-labeled cDNA probe containing MnSOD or eNOS cDNA sequence. The membranes were subsequently stripped and probed with a radiolabeled 18S-ribosome probe. For actinomycin D experiments, HCAEC cells were pretreated with 10 μg/ml actinomycin D (Sigma Chemical Company, St. Louis, Mo., USA) for 30 minutes before addition of VEGF and were harvested for total RNA one hour later.
To determine whether VEGF induced expression of MnSOD in primary endothelial cell cultures, HCAECs and HPAECs were serum starved for 24 hours, treated with 40 ng/ml VEGF for 0, 0.5, 1, 2, 4, 12 and 24 hours, and then harvested for total RNA. Northern blots were performed and probed for human MnSOD. […] The membranes were then stripped and reprobed for eNOS.
To determine whether the response of MnSOD to VEGF was mediated by ROS, HCAECs were serum starved and then treated with VEGF in the absence or presence of inhibitors of NADPH oxidase (DPI, apocynin), xanthine oxidase (allopurinol) and nitric oxide synthase (L-NAME).

[3] = tested on: ROS; experiment: ROS generation: DCF oxidation by flow cytometry in DCFDA-labeled HCAECs; assay type: cell-based, human; conditions: relative to basal rate of control cells
Procedure: Western blot analyses. Whole cell protein extracts were prepared from serum-starved HCAECs and HPAECs one hour following addition of growth factor-supplemented or mock-treated media. Cells were washed twice with cold phosphate-buffered saline, harvested with a cell scraper, and lysed in ice-cold lysis buffer containing 20 mM HEPES, pH 7.5, 150 mM NaCl, 1% NP-40, 0.1% SDS, 1 mM EDTA, 1 mM DTT, 0.5 mM phenylmethylsulfonyl fluoride (PMSF), and the protease inhibitor cocktail (Boehringer Mannheim, Mannheim, Germany) for one hour. The resulting lysates were centrifuged at 10,000× g for 20 minutes and the supernatants were saved as whole cell protein extracts. Forty micrograms of protein were separated by 10% SDS-PAGE and electrotransferred to nitrocellulose membranes. Membranes were blocked with 5% nonfat dry milk in Tris-buffered saline with 0.1% Tween 20 for one hour at room temperature. The blot was incubated with primary rabbit polyclonal anti-MnSOD IgG (1:1000 dilution) (Santa Cruz Biotechnology Inc., Santa Cruz, Calif., USA) overnight at 4° C., followed by secondary antibody goat-anti-rabbit horseradish peroxidase conjugate (1:1000 dilution) (Pierce, Rockford, Ill., USA). The blot was washed extensively between each incubation step. Peroxidase activity was visualized with an enhanced chemiluminescense substrate system (Amersham, Arlington Heights, Ill., USA). Membranes were stripped and probed for eNOS and β-actin. Flow cytometry. Endothelial cells were labeled with DCFDA and oxidation of DCF was measured by flow cytometry.
To test whether VEGF increases ROS production in endothelial cells, HCAECs were labeled with […] DCFDA and oxidation of DCF was measured by flow cytometry. […] PMS is known to induce free oxygen radicals.

[4] = tested on: human coronary artery endothelial cells (HCAECs); experiment: VEGF-induced chemotaxis of HCAECs, Boyden chamber assay; assay type: cell-based; conditions: for inhibition of migration, dose dependence: VEGF 50 ng/ml, DPI 0.5, 1.0, 5.0, 10 μM, AEBSF 5, 50, 100, 250 μM
Procedure: The capacity of NADPH oxidase inhibitors to block migration of human coronary artery endothelial cells was tested. In these studies, VEGF-induced chemotaxis was tested with the Boyden chamber assay. Human coronary artery endothelial cells were serum starved in 0.5% FBS overnight. 25,000 cells were seeded into the upper chamber in the absence or presence of DPI, while media containing 0.5% FBS and 40 ng/ml was placed into the lower chamber. The chamber was incubated for 4 hours at 37° C., at which time the polycarbonate filters were harvested and counted for migrating cells. The results are shown in FIG. 14, which is a histogram showing the migration in terms of cell count (y-axis) of human coronary artery endothelial cells in a Boyden chamber. The cells were serum starved in 0.5% FBS and treated with either VEGF, DPI or VEGF+DPI (x-axis).
The effect of AEBSF on VEGF-induced migration was also studied. HCAECs were treated as above and treated by either VEGF, VEGF+100 μM allopurinol, or VEGF+250 μM AEBSF. The results are shown in FIG. 15, which is a histogram showing migration in terms of cell count (y-axis) when treated (x-axis). The NADPH oxidase inhibitor AEBSF abrograted the VEGF-mediated chemotaxis of HCAECs.
These are histograms showing VEGF-mediated chemotaxis in control HCAECs (“C”), or HCAECs treated with 50 ng/ml VEGF in the absence or presence of increasing doses of DPI (0.5, 1.0, 5.0 or 10 μM; FIG. 16A) or AEBSF (5, 50, 100 or 250 μM; FIG. 16B).

[5] = tested on: mouse embryonic fibroblasts; experiment: [3H]-thymidine incorporation in primary murine embryonic fibroblasts; assay type: cell-based; conditions: 10% FBS, 16 hours
Procedure: To determine whether the effect of NADPH oxidase inhibition was specific to endothelial cells, the effect of the various inhibitors on thymidine incorporation in primary murine embryonic fibroblasts was tested. The results are shown in FIG. 13, which is a histogram showing thymidine incorporation (y-axis) in mouse embryonic fibroblasts that have been grown in 0.5% FBS or 10% FBS in the absence (10% FBS) or presence of inhibitors (Apo=apocynin; allo=allopurinol; L-NAME) for 16 hours.

[6] = serum starved (0.5% FBS) and VEGF-treated HCAECs, 16 or 24 hours

Q: How did the thymidine uptake [1, 6] turn out when `O=C1c2ccccc2Cc2ccccc21` [anthrone] was run?
A: profound inhibition

Q: For `CN(C)CCCn1cc(C2=C(c3c[nH]c4ccccc34)C(=O)NC2=O)c2ccccc21` [BIM, bisindolylmaleimide I], which “VEGF-mediated induction of MnSOD mRNA” value ([2]; preincubation, BIM 0.1, 1, 5 μM, PD98059 5, 20, 100 μM) is on record?
A: inhibited

Q: `CN(C)CCCn1cc(C2=C(c3c[nH]c4ccccc34)C(=O)NC2=O)c2ccccc21` [GF-109203X] was tested. Which “VEGF stimulation of MnSOD” value [2] did it give?
A: significantly reduced

Q: `Oc1ncnc2[nH]ncc12` [allopurinol] was tested. Which “DCF oxidation (ROS production)” value [3] did it give?
A: no effect

Q: What about the thymidine incorporation [1] of the same compound?
A: no effect

Q: Which “VEGF-mediated induction of MnSOD mRNA” value ([2]; pretreatment with the inhibitor, concentration not given) does the source give for `NCCc1ccc(S(=O)(=O)F)cc1` [AEBSF, 4-(2-aminoethyl)-benzenesulfonyl fluoride] here?
A: inhibited

Q: What about the thymidine uptake ([1]; HCAECs, 5% FBS, AEBSF 5, 50, 100, 500 μM) of the same compound?
A: inhibited

Q: What about the “inhibition of migration, dose dependence” value [4] of the same compound?
A: dose-dependent

Q: What about the VEGF-mediated chemotaxis ([4]; VEGF + 250 μM AEBSF) of the same compound?
A: abrograted

Q: With `CCCCCCCCCCCCCC(=O)O[C@@H]1[C@@H](C)[C@@]2(O)[C@@H](C=C(CO)C[C@]3(O)C(=O)C(C)=C[C@@H]23)[C@@H]2C(C)(C)[C@]12OC(C)=O` [PMA] as the compound, how does the “DCF oxidation (ROS production)” value [3] read?
A: significantly increased

Q: How did the “VEGF stimulation of MnSOD” value [2] turn out when `C[S+]([O-])c1ccc(-c2nc(-c3ccncc3)c(-c3ccc(F)cc3)[nH]2)cc1` (stereo not shown) [SB 203580] was run?
A: not

Q: What does the source list for `COC(=O)[C@@H](N)CCCNC(=N)N[N+](=O)[O-]` [L-NAME]?
A: DCF oxidation (ROS production) [3]: no effect; thymidine incorporation [1]: no effect

Q: How did the “VEGF stimulation of MnSOD” value [2] turn out when `COc1cccc(-c2cc(=O)c3ccccc3o2)c1N` [PD98059] was run?
A: not

Q: Which “DCF oxidation (ROS production)” value [3] does the source give for `COS(=O)(=O)[O-].C[n+]1c2ccccc2nc2ccccc21` [PMS] here?
A: increased ROS production

Q: For `Cc1c2oc3c(C)ccc(C(=O)N[C@@H]4C(=O)N[C@H](C(C)C)C(=O)N5CCC[C@H]5C(=O)N(C)CC(=O)N(C)[C@@H](C(C)C)C(=O)O[C@@H]4C)c3nc-2c(C(=O)N[C@@H]2C(=O)N[C@H](C(C)C)C(=O)N3CCC[C@H]3C(=O)N(C)CC(=O)N(C)[C@@H](C(C)C)C(=O)O[C@@H]2C)c(N)c1=O` [Actinomycin D, actinomycin D] (I: T[dV]P[Sar][NMeV] / II: T[dV]P[Sar][NMeV]; ester I:1-I:C, II:1-II:C; linker I:N-II:N via Actinocin(9to1)), which “VEGF-mediated induction of MnSOD mRNA” value ([2]; HCAEC, 10 μg/ml actinomycin D for 30 minutes before 60 minute incubation with VEGF) is on record?
A: completely abolished

Q: What does the source list for `c1ccc2c(c1)[I+]c1ccccc1-2` [DPI, diphenyleneiodonium]?
A: VEGF-mediated induction of MnSOD [2]: inhibited; DCF oxidation (ROS production) [3]: significantly inhibited; DPI concentration inhibiting serum-induced thymidine incorporation ([1]; HCAECs in 5.0% FBS, doses 1, 5, 25, 40, 80 μM): ≤ 1 µM; thymidine uptake [1, 6]: profound inhibition; migration (cell count) ([4]; 25 μM DPI, VEGF in lower chamber, 4 hours): profound inhibition; inhibition of migration, dose dependence [4]: dose-dependent

Q: What does the source list for `COc1cc(C(C)=O)ccc1O` [apocynin]?
A: VEGF-mediated induction of MnSOD [2]: inhibited; serum-induced thymidine incorporation ([1]; HCAECs, 5.0% FBS, apocynin 300 μM, 500 μM, 1 mM, 2 mM, 3 mM): dose-dependent inhibition; thymidine incorporation [5]: failed to reduce incorporation below baseline
